Test results: patent US20240279232A1, “USE OF SUBSTITUTED 5-(4-METHYL-6-PHENYL-4H-BENZO[F]IMIDAZO[1,5-A][1,4] DIAZEPIN-3-YL)-1,2,4-O[…] THE TREATMENT OF INFLAMMATORY CONDITIONS” (priority 2021, published 2024)
Read-outs that look alike come from different tables or passages of the source.

Tests used:
HEPG2 = assay: Viability assay (CellTiter-Glo), HEPG2; assay type: cell-based, human; settings: 120 μM, CellTiter-Glo
Protocol: (§1) The screen identified several compounds that reduced NO in activated microglia and macrophages. The tested compounds included achiral and chiral imidazodiazepines and benzodiazepines. In general, microglia were more sensitive to compound treatment with more pronounced reduction of NO than macrophages. […] Cell viability assays with HEK293 (kidney) and HepG2 (liver) cells were conducted in a concentration dependent manner. A limited number of compounds, such as GL-III-63, GL-III-76A, and GL-III-77, were toxic at 120 μM.
(§2) Viability assay. Human liver hepatocellular carcinoma (HEPG2) and human embryonic kidney 293T (HEK293T) cell lines were purchased (ATCC) and cultured in 75 cm^2 flasks (CellStar). Cells were grown in DMEM/High Glucose (Hyclone, #SH3024301) media to which non-essential amino acids (Hyclone, #SH30238.01), 10 mM HEPES (Hyclone, #SH302237.01), 5×10^6 units of penicillin and streptomycin (Hyclone, #SV30010), and 10% of heat inactivated fetal bovine serum (Gibco, #10082147) were added. Cells were harvested using 0.05% Trypsin (Hyclone, #SH3023601), washed with PBS, and dispensed into sterile white, optical bottom 384-well plates (NUNC, #142762). After three hours, small molecule DMSO solutions were transferred with a Tecan Freedom EVO liquid handling system equipped with a 100 nL pin tool (V&P Scientific). The controls were 3-dibutylamino-1-(4-hexyl-phenyl)-propan-1-one (25 mM in DMSO, positive control) and DMSO (negative control). The cells were incubated for 48 hours followed by the addition of CellTiter-Glo™, a luminescence-based cell viability assay (Promega, Madison, WI). All luminescence readings were performed on a Tecan Infinite M1000 plate reader. The assay was carried out in quadruplet with two independent runs. The data were analyzed by nonlinear regression.

Mouse microglia [1] = assay: NO production (Griess assay), LPS/IFNγ-activated mouse microglia; assay type: cell-based; settings: for Inhibition of NO production (%) Mouse microglia 50 μM: 24 hours, 1 μM GABA, LPS/IFNγ; for inhibition at 10 µM / inhibition at 50 µM: Mus musculus, Microglia, 24 h
Protocol: (§3) Next, a library of GABAAR ligands was investigated to identify compounds that reduce the production of NO as a marker of anti-inflammatory activity. […] NO was quantified with a Greiss assay. Cell viability was determined with CellTiter-Glo.
Cell culture. A) HMC3 Microglia (CRL-3304) were maintained in treated cell culture flasks (Nunc, 156472) with EMEM (Corning, 10010CV) supplemented with 10% heat-inactivated FBS (Corning, 35011CV) and 100 U/mL penicillin and 100 μg/mL streptomycin (Hyclone, SV30010). Cultures were maintained at 37° C. and 5% CO2. When cells reached a density of 7×10^4 cells/mL, cultures were passaged with 0.25% Trypsin (Corning, 25-053-CI) and resuspended to a density no lower than 10,000 cells/mL. B) Human and mouse microglia cell lines were a gift from Dr. David Alvarez-Carbonell at Case Western Reserve University (Cleveland, OH). Microglia were cultured in cell culture treated flasks (Nunc, 156472) with DME/F12 media (Hyclone, SH30023.01) supplemented with 10% heat-inactivated FBS (Corning, 35011CV), 100 U/mL penicillin/100 μg/mL streptomycin (Hyclone, SV30010), and Normocin (Invivogen, ant-nr). Cultures were maintained at 37° C. and 5% CO2. […] Cultures were maintained at 37° C. and 5% CO2. Cells were passaged when they reached a density of approximately 3×10^6 cells/mL using cell scrapers (VWR, 10062-906) to lift cells from flask surface and resuspended at densities of approximately 500,000 cells/mL.
(§4) Nitric oxide production (Griess assay) and viability assay (CellTiter-Glo). 80 μL of mouse microglia culture (1×10^6 cells/mL) was plated into sterile 384 well plates representing non-activated wells. The remaining culture was activated with 50 ng/ml LPS (Invivogen, NC9836) and 150 U/mL IFNγ (R&D Systems, 485MI100) and distributed into the 384 well plates. […] Assay plates were incubated for approximately 24 hours (unless otherwise noted) at 37° C., centrifuged, and 40 μL of supernatant transferred to a new plate for analysis using the Griess Assay (Promega, Madison, WI). Absorbance at 530 nm was measured using a TECAN Infinite M1000 plate reader. The remaining 40 μL containing cells was analyzed for toxicity by the CellTiter-Glo Assay (Promega, Madison, WI). Luminescence was read using a TECAN Infinite M1000 plate reader.

Mouse microglia [2] = assay: Cell viability (CellTiter-Glo), mouse microglia; assay type: cell-based; settings: 50 μM, CellTiter-Glo
Protocol: as §3, §4

HEK293 = assay: Viability assay (CellTiter-Glo), HEK293; assay type: cell-based, human; settings: 120 μM, CellTiter-Glo
Protocol: as §1, §2

DOR (δ opioid receptor) = target: T1, DOR (δ opioid receptor) (Homo sapiens, UniProt P41143); assay: DOR radioligand binding ([3H]-DADLE, HEK293 cell homogenates); settings: Percent inhibition at 10,000 nM; [3H]-DADLE
T1 construct: expressed in transfected cells; host or cells: HEK293
T1 sequence (P41143 whole entry): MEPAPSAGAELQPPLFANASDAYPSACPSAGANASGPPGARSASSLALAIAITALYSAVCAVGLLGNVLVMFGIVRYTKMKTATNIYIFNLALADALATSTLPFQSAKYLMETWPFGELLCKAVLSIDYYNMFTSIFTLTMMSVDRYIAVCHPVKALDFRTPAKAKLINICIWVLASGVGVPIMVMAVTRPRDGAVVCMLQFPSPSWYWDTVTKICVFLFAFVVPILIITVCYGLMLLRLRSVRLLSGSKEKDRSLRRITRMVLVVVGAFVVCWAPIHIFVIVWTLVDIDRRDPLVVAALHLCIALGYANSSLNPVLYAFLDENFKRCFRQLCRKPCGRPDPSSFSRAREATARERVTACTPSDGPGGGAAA

KOR (κ opioid receptor) = target: T2, KOR (κ opioid receptor) (Homo sapiens, UniProt P41145); assay: KOR radioligand binding ([3H]-U69593, HEK293 cell homogenates)
T2 construct: expressed in transfected cells; host or cells: HEK293 (stably transfected)
T2 sequence (P41145 whole entry): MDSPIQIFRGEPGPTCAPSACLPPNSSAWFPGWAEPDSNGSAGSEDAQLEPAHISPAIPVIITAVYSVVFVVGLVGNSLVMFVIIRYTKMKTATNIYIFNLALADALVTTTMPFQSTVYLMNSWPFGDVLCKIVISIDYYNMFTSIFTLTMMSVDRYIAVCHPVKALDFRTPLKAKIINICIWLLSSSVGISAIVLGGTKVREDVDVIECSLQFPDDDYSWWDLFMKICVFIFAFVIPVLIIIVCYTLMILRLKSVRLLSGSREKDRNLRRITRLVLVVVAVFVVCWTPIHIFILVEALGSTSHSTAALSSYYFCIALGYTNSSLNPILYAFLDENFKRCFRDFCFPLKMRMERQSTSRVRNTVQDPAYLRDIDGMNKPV

[3] = test system: BZR (benzodiazepine site of GABAAR); assay: GABAAR/BZR binding, rat brain homogenate with 3H-flunitrazepam; settings: rat brain homogenate, 3H-flunitrazepam; for BZR %: Percent inhibition at 10,000 nM
In short: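 Rat brain homogenate incubated with 3H-flunitrazepam near its Kd, typically 90 min at room temperature in the dark; nonspecific binding defined with 10 μM reference compound. Filtration on PEI-soaked mats, scintillation counting; compounds screened at 10,000 nM, those above 50% displacement taken to concentration–response for Ki by nonlinear regression (n=6).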

MOR (μ opioid receptor) = target: T3, MOR (μ opioid receptor) (Homo sapiens, UniProt P35372); assay: MOR radioligand binding ([3H]-DAMGO, HEK293 cell homogenates); settings: Percent inhibition at 10,000 nM; [3H]-DAMGO
T3 construct: expressed in transfected cells; host or cells: HEK293
T3 sequence (P35372 whole entry, species assumed): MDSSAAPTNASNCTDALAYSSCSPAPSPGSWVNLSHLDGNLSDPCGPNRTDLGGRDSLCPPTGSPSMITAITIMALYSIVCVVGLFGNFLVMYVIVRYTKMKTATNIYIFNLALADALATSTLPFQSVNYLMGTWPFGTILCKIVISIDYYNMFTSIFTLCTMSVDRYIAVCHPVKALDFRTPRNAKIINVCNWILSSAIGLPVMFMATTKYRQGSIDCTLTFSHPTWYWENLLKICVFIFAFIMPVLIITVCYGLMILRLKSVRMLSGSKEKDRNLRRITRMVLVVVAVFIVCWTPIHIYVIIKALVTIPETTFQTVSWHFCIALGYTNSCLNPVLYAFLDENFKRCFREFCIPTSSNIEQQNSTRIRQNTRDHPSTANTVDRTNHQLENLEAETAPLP

RAW macrophages [4] = assay: NO production (Griess assay), LPS/IFNγ-activated RAW264.7 macrophages; assay type: cell-based, mouse; settings: Mus musculus, Macrophage, 24 h
RAW macrophages [5] = assay: Cell viability (CellTiter-Glo), RAW macrophages; assay type: cell-based, mouse; settings: CellTiter-Glo
[6] = Percent inhibition at 10,000 nM, [3H]-U69593
[7] = concentration-dependent, [3H]-U69593, read-out: KOR (Ki)

Row | Compound | Cell viability (%) HEPG2 120 μM (HEPG2) | Inhibition of NO production (%) Mouse microglia 50 μM (Mouse microglia [1]) | Cell viability (%) Mouse microglia 50 μM (Mouse microglia [2]) | Cell viability (%) HEK293 120 μM (HEK293) | inhibition at 10 µM (DOR (δ opioid receptor)) | inhibition at 10 µM (KOR (κ opioid receptor); [6]) | BZR % [3] | Ki [3] | inhibition at 10 µM (Mouse microglia [1]) | inhibition at 10 µM (MOR (μ opioid receptor)) | inhibition at 10 µM (RAW macrophages [4]) | Ki (KOR (κ opioid receptor)) | inhibition at 50 µM (Mouse microglia [1]) | DOR % (DOR (δ opioid receptor)) | KOR % (KOR (κ opioid receptor); [6]) | MOR % (MOR (μ opioid receptor)) | Ki (KOR (κ opioid receptor); [7]) | NO production of activated microglia (in words) (Mouse microglia [1]; dexamethasone 100 nM, GABA 1 μM, MP-IV-010 50 μM, GL-II-33 in the library screen) | Cell viability (%) RAW macrophages 50 μM (RAW macrophages [5])
1 | C#Cc1ccc2c(c1)C(c1ccccc1F)=NCc1c(-c3nc(C)no3)ncn1-2 [GL-III-23] | 90 ± 13% | 28 ± 5% | 100 ± 2% | 65 ± 5% | – | – | – | – | – | – | – | – | – | – | – | – | – | – | –
2 | C#Cc1ccc2c(c1)C(c1ccccn1)=N[C@H](C)c1c(C(=O)OCC)ncn1-2 [GL-II-19] | 100 ± 9% | – | 100 ± 11% | 90 ± 5% | 2% | 44% | 71% | 1140 nM | 32 ± 4% | 17% | 2 ± 2% | – | – | – | – | – | – | – | –
3 | C#Cc1ccc2c(c1)C(c1ccccc1F)=NCc1c(C(=O)OCCCOC(=O)c3ncn4c3CN=C(c3ccccc3F)c3cc(C#C)ccc3-4)ncn1-2 [YT-III-271] | – | 0 ± 4% | 100 ± 3% | – | – | – | – | – | – | – | – | – | – | – | – | – | – | – | –
4 | C#Cc1ccc2c(c1)C(c1ccccc1F)=N[C@@H](C)c1c(-c3nc(C)no3)ncn1-2 [GL-I-65, (S)-5-(8-Ethynyl-6-(2-fluorophenyl)-4-methyl-4H-benzo[f]imidazo[1,5-a][1,4]diazepin-3-yl)-3-methyl-1,2,4-oxadiazole] | – | – | 100 ± 12% | – | 7% | 88% | 79% | 1150 nM | – | 2% | – | 222 nM | 19 ± 9% | – | – | – | – | – | –
5 | C#Cc1ccc2c(c1)C(c1ccccn1)=NCc1c(-c3cnco3)ncn1-2 [KRM-II-81] | 100 ± 12% | 0 ± 1% | 100 ± 5% | 96 ± 11% | – | – | 86% | 294 nM | – | – | – | – | – | 15% | 46% | 7% | – | – | –
6 | C#Cc1ccc2c(c1)C(c1ccccc1)=NCc1c(C(=O)NC)ncn1-2 [YT-III-31] | 100 ± 7% | 0 ± 2% | 100 ± 8% | 96 ± 10% | – | – | – | – | – | – | – | – | – | – | – | – | – | – | –
7 | C#Cc1ccc2c(c1)C(c1ccccc1)=NCc1c(-c3cnco3)ncn1-2 [KRM-II-82] | – | – | 100 ± 6% | – | 20% | 78% | 95% | 96 nM | – | 5% | – | – | 0% | – | – | – | 1200 nM | – | –
8 | C#Cc1ccc2c(c1)C(c1ccccn1)=NCc1c(-c3nc(CC)no3)ncn1-2 [MP-III-080] | – | – | 100 ± 14% | – | 0% | 47% | 88% | 303 nM | – | 0% | – | – | 0% | – | – | – | – | – | –
9 | Cc1noc(-c2ncn3c2[C@@H](C)N=C(c2ccccn2)c2cc(C4CC4)ccc2-3)n1 [GL-III-64] | 75 ± 10% | – | 96 ± 10% | 75 ± 8% | 14% | 60% | 92% | 1490 nM | – | 7% | – | 2050 nM | 26 ± 10% | – | – | – | – | – | –
10 | C#Cc1ccc2c(c1)C(c1ccccn1)=NC(C)c1c(-c3nc(C)no3)ncn1-2 (centres unmarked) [GL-II-33] | – | 0 ± 3% | 100 ± 4% | – | – | – | – | – | – | – | – | – | – | – | – | – | – | did not reduce NO production | 100 ± 7%
11 | C#Cc1ccc2c(c1)C(c1ccccc1F)=NCc1c(-c3cnco3)ncn1-2 [KRM-II-18B] | – | – | 100 ± 3% | – | 20% | 89% | 97% | 38 nM | – | 11% | – | – | 0% | – | – | – | 361 nM | – | –
12 | C#Cc1ccc2c(c1)C(c1ccccc1F)=N[C@@H](C)c1c(-c3nc(CC)no3)ncn1-2 [GL-I-66, (S)-3-Ethyl-5-(8-ethynyl-6-(2-fluorophenyl)-4-methyl-4H-benzo[f]imidazo[1,5-a][1,4]diazepin-3-yl)-1,2,4-oxadiazole] | – | – | 71 ± 9% | – | 2% | 92% | 80% | 654 nM | 5 ± 2% | 28% | – | 212 nM | 86 ± 11% | – | – | – | – | – | –
